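Results reflect a 48-hour exposure of cells in 96-well plates to compound at five concentrations. The concentration for 50% growth inhibition is given as GI50. TGI is the concentration that stops growth completely.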
Tests used:
Experiment in all cases: NCI tumour cell line growth inhibition, 48 h
RPMI-8226 leukemia = test system: RPMI-8226 leukemia
LOX IMVI melanoma = test system: LOX IMVI melanoma
NCI-H460 lung = test system: NCI-H460 lung
HCT-15 colon = test system: HCT-15 colon
OVCAR-8 ovarian = test system: OVCAR-8 ovarian
SN12C renal = test system: SN12C renal
IGROV1 ovarian = test system: IGROV1 ovarian
A498 renal = test system: A498 renal
SK-MEL-2 melanoma = test system: SK-MEL-2 melanoma
NCI/ADR-RES ovarian = test system: NCI/ADR-RES ovarian

SMILES	TGI (RPMI-8226 leukemia) [µM]	TGI (LOX IMVI melanoma) [µM]	TGI (NCI-H460 lung) [µM]	TGI (HCT-15 colon) [µM]	TGI (OVCAR-8 ovarian) [µM]	TGI (SN12C renal) [µM]	TGI (IGROV1 ovarian) [µM]	TGI (A498 renal) [µM]	TGI (SK-MEL-2 melanoma) [µM]	GI50 (RPMI-8226 leukemia) [µM]	GI50 (NCI-H460 lung) [µM]	GI50 (NCI/ADR-RES ovarian) [nM]	GI50 (HCT-15 colon) [µM]	GI50 (OVCAR-8 ovarian) [µM]	GI50 (SN12C renal) [µM]	GI50 (IGROV1 ovarian) [µM]	TGI (NCI/ADR-RES ovarian) [µM]	GI50 (LOX IMVI melanoma) [µM]	GI50 (SK-MEL-2 melanoma) [µM]	GI50 (A498 renal) [µM]
COC(=O)CC(NC(=O)OCc1ccccc1)C(C(C)=O)C(=O)OCc1ccccc1 (stereo not given)	> 31.6	> 100	> 31.6	> 31.6	> 31.6	> 31.6	> 31.6	> 31.6												
C[C@@H](NC1CCCC[C@H]1O)c1ccccc1 (stereo not given in full)	> 100	> 100	> 100	> 100	> 100	> 100	> 100	> 100	> 100											
Cc1ccc(S(=O)(=O)OCCn2cnc3nc(NC(=O)c4ccccc4)[nH]c(=O)c32)cc1	> 100	> 100	> 100	> 100	> 100	> 100	> 100	> 100	> 100											
COC(=O)CCC(NC(=S)N/N=C(\C)c1cnc2ccccc2n1)C(=O)OC (stereo not given)	36.8	66.3	> 100	> 100	> 100	> 100	> 100	> 100	> 100											
Cc1cc(O)c(=O)cc2c1C[C@H]1CC(C)(C)/C=C/C[C@]3(C)Oc4cc(=O)c(O)cc(C)c4C[C@H]3C[C@H](O)[C@@]1(C)O2	2.97		10.3	> 100	11.6	> 29.2	7.46			0.0185	< 0.01	< 10	< 0.01	< 0.01	< 0.0133	0.025				
C/C(=C1/N=C(c2cc([N+](=O)[O-])ccc2Cl)N(c2cccc(C)c2)C1=O)c1cc2ccccc2oc1=O	72	37.1	> 100	> 100	> 100	> 100	> 100	> 100	> 100											
N#CCCN(c1ccc(C=Nc2ccccc2)cc1)S(=O)(=O)c1ccccc1	> 100				> 100	> 100	> 100	> 100	> 100											
Cn1cc(C(=O)c2ccccc2)c2ccccc2c1=O	> 100	> 100	> 100	> 100	> 100	> 100	> 100		> 100											
CN1c2ccccc2N(C(=O)c2ccc([N+](=O)[O-])cc2)C(CC(=O)O)c2cccn21 (stereo not given)	> 100	> 100	> 100	> 100	> 100	> 100	> 100	> 100	> 100											
Nc1ncnc2c1ncn2[C@]1(CO)C=C(CO)C(O)C1O (stereo not given in full)	> 100	> 100	> 100	> 100		> 100		> 100	> 100											
COC(=O)C(C(=O)C(=O)Nc1c(C)cccc1C)c1cnc2ccccc2n1 (stereo not given)	> 100	> 100	> 100	> 100	> 100	> 100	> 100	> 100	> 100											
CC(=O)OCC1OC(n2cc(F)c(=O)[nH]c2=O)C(NC(=O)N(CCCl)N=O)C(OC(C)=O)C1OC(C)=O (stereo not given)	> 100	> 100	> 100		> 100	> 100	> 100	> 100												
Cn1c2c(c3ccccc31)CCN(CCCCN1CCCCC1)C2=O	> 100		> 100	> 100	> 100	> 100	> 100	> 100	> 100											
CN1C(=O)CCC1(O)C1C=CC=CC1 (stereo not given)	> 100	> 100	> 100	> 100	> 100	> 100	> 100													
CC1=Nc2ccccc2S/C1=C(/C)NNS(=O)(=O)c1ccc(C)cc1	> 100	> 100	> 100	> 100	> 100	> 100	> 100	> 100	> 100											
O=C1CSCc2sccc21			> 100	> 100	> 100	> 100	> 100	> 100	> 100								> 100			
COc1ccc(NC(=O)C(=O)c2c(O)c3ccc(O)cc3oc2=O)c([N+](=O)[O-])c1		> 100	> 100	> 100			> 100	> 100	> 100											

SMILES	TGI (RPMI-8226 leukemia) [µM]	TGI (LOX IMVI melanoma) [µM]	TGI (NCI-H460 lung) [µM]	TGI (HCT-15 colon) [µM]	TGI (OVCAR-8 ovarian) [µM]	TGI (SN12C renal) [µM]	TGI (IGROV1 ovarian) [µM]	TGI (A498 renal) [µM]	TGI (SK-MEL-2 melanoma) [µM]	GI50 (RPMI-8226 leukemia) [µM]	GI50 (NCI-H460 lung) [µM]	GI50 (NCI/ADR-RES ovarian) [nM]	GI50 (HCT-15 colon) [µM]	GI50 (OVCAR-8 ovarian) [µM]	GI50 (SN12C renal) [µM]	GI50 (IGROV1 ovarian) [µM]	TGI (NCI/ADR-RES ovarian) [µM]	GI50 (LOX IMVI melanoma) [µM]	GI50 (SK-MEL-2 melanoma) [µM]	GI50 (A498 renal) [µM]
O=C(/C=C/c1cc(Cl)cc(Cl)c1O)c1cccc(O)c1	> 100	25.5	> 100	> 100	> 100	27.7	> 100	> 100	61.7											
O=C(NCCCCCCCCCCCCNC(=O)c1cccc2ccccc12)c1cccc2ccccc12	> 100	> 100	> 100	> 100	> 100	> 100	> 100	> 74.4	> 100											
COc1ccc2c(c1OC)C[C@@H]1c3c(cc4c(c3-2)OCO4)CCN1C	42.9	29.1	91.4	> 100	> 100	> 100	99.1	63.5	88.7											
O=C1NC(Cc2ccc(O)cc2)C(=O)N2CCCC12 (stereo not given)	> 100	> 100	> 100	> 100	> 100	> 100	> 100	> 100	> 100											
Cc1nc(-n2nc(-c3ccccc3)cc2-c2ccccc2)sc1C(=O)/C=C/c1ccc(/C=C/C(=O)c2sc(-n3nc(-c4ccccc4)cc3-c3ccccc3)nc2C)cc1		40.6	95.7	> 100	> 100	43.5	28.6		51.8											
N.N.N.N.N.[Co+3].[I-].[N-]=[N+]=[N-]	> 100	> 100	> 100	> 100	> 100	> 100	> 100	> 100	> 100	35.5	> 100		> 100	> 100	> 100	> 100		> 100	> 100	> 100
O=C(N/C(=C\c1ccc(Cl)cc1)c1nc2ccccc2[nH]1)c1ccccc1	42.6	31.5	49.7	> 100	52.8	49.2	60	52.4	42.2											
CN(CCN1C(=O)c2cc([N+](=O)[O-])cc3cc([N+](=O)[O-])cc(c23)C1=O)CCN1C(=O)c2cc([N+](=O)[O-])cc3cc([N+](=O)[O-])cc(c23)C1=O	> 21.2	1.44		8.65	29.6	> 100	5.51	> 100	5.21											
CN(C)C=Nc1ccn(CCO)c(=O)n1		> 100	> 100	> 100	> 100	> 100	> 100	> 100	> 100											
COc1ccc(C/C(=N/O)C(=O)NCCc2cc(Br)c(OCCCN(C)C)c(Br)c2)cc1Br		30.1	33.4		49.1	33.8			37.4											
Cc1c(Cl)cccc1NC(=O)C(=O)C(C(=O)c1ccccc1-c1ccccc1)C1OC(=O)c2ccccc21 (stereo not given)	59.1	39.5	76.3		> 100		> 100		32.6											
CCOC(=O)/C(=C/N1CCN(C(=O)c2ccco2)C1=S)C(=O)c1ccccc1	> 50	14.2	15.4	18.5	35.2	17.4	> 50			12.4	4.87		6.33	11.7	8.1	> 50		6.48		
Cc1cn(C2CC(O)C(COC(=O)c3ccccc3)O2)c(=O)[nH]c1=O (stereo not given)	> 100	> 100	> 100	> 100	> 100	> 100	> 100	> 100												
CCC(C)CCOC(=O)c1ccc(N=Cc2ccc(C=Nc3ccc(C(=O)OCCC(C)CC)cc3)cc2)cc1 (stereo not given)	> 100	> 100	> 100	> 100	> 100	> 100	> 100	> 100	> 100											
Cc1cc(NCCCCCCCCNc2cc(C)nc3cc(N)ccc23)c2ccc(N)cc2n1	> 100	40.1	49.5	> 100	52.1	> 100		> 100	40.4											
COC(=O)C(Cc1cc(OC)c(OC)c(OC)c1)C(=O)OC	> 320	> 320	> 320	> 320	> 320	> 320	> 320		> 320											
